What is called IC50 is the concentration that gives 50% inhibition.

Values after ≈ are worked out from the molar mass of the structure shown.

Data set [1] relates to HT-29, MCF-7, NCI-H460, SF268, and IMR90 cells. Put plainly: Cytotoxicity against the panel of cell lines. The data set is classed as cell-based, Human.
The subject of data set [2] is M. tuberculosis, M. smegmatis, C. albicans, E. coli, and A. baumanii. Kind of data set: Antimicrobial activity against a panel of microorganisms. The data set is classed as cell-based.
The test system of the next data set is Vero cells. Put plainly: Vero cell cytotoxicity.
The test system of a further data set is IMR90 cells. Kind of data set: Cytotoxicity against IMR90 cells. The data set is classed as cell-based, Human.
For the next data set, the system named is Candida albicans. Put plainly: Antimicrobial activity. The data set is classed as cell-based.
The subject of another data set is Staphylococcus aureus. Put plainly: Antimicrobial activity. The data set is classed as cell-based.
For data set [3], the system named is Mycobacterium tuberculosis.
The test system of another data set is Escherichia coli. Put plainly: Antimicrobial activity. The data set is classed as cell-based.
The subject of another data set is Mycobacterium smegmatis. Put plainly: Antimicrobial activity. The data set is classed as cell-based.
The test system of the next data set is Acinetobacter baumannii. Put plainly: Antimicrobial activity. The data set is classed as cell-based.

Regarding `C=C[C@]1(C)CC2C(=O)c3c(NC=O)cccc3C(C)(C)[C@H]2C[C@H]1O` (relative stereo) [13-hydroxy dechlorofontonamide (3), 13-hydroxy dechlorofontonamide], the “cytotoxicity (in words)” value in data set [1] (all cell lines tested (HT-29, MCF-7, NCI-H460, SF268, IMR90)) was “inactive”. The “antimicrobial activity (in words)” value in [2] is “no antimicrobial activity”.
With `[C-]#[N+]C1=C2c3c[nH]c4cccc(c34)C(C)(C)[C@H]2CC[C@]1(C)C=C` [Deschloro hapalindole I (2), deschloro hapalindole I], the “antimicrobial activity (in words)” value in data set [2] was “no antimicrobial activity”.
As to `[C-]#[N+][C@@H]1[C@H]2c3c[nH]c4cccc(c34)C(C)(C)[C@@H]2CC[C@]1(C)C=C` [Hapalindole H], the IC50 in [1] (Homo sapiens, read-out: IC50 values (range over cell lines)) lay in the range of 8.5 to 31.9 µM.
In the case of `[C-]#[N+]C1=C2c3c[nH]c4cccc(c34)C(C)(C)[C@H]2C[C@@H](Cl)[C@]1(C)C=C` [Hapalindole I], the “cytotoxicity against Vero cells (in words)” value with Vero cells is “no detectable cytotoxicity”.
Take `[C-]#[N+][C@H]1C(=C)[C@@H](C=C)C[C@@H]2[C@@H]1c1c[nH]c3cccc(c13)C2(C)C` [Hapalindole X (1), hapalindole X]: the “cytotoxicity (in words)” value in the data set on IMR90 cells is listed as “relatively low cytotoxicity”; in data set [1] (all four cancer cells (HT-29, MCF-7, NCI-H460, SF268)), “moderate cytotoxicity”.
As to `[C-]#[N+][C@@H]1[C@H]2C(=O)c3c(NC=O)cccc3C(C)(C)[C@@H]2CC[C@]1(C)C=C` [Hapalonamide H], in the data set on Candida albicans, the “MIC C. albicans” value was under 0.6 µM. Also, the “MIC S. aureus” value in the data set with Staphylococcus aureus is over 100 µM. Moreover, the “MIC M. tuberculosis” value in data set [3] turned out to be 1.2 µM (≈ 0.404 µg/mL). Moreover, the “MIC E. coli” value with Escherichia coli is over 100 µM. Moreover, the “MIC M. smegmatis” value against Mycobacterium smegmatis was determined as 34.3 µM (≈ 11.5 µg/mL). In addition, the “MIC A. baumanii” value against Acinetobacter baumannii is over 100 µM. In the data set with Vero cells (read-out: IC50 Vero, Vero cell toxicity), the IC50 worked out at 13.6 µM.
For the compound Gentamycin [reference compound], the “MIC E. coli” value with Escherichia coli amounted to 2.3 µM.

Source of the values: paper PMC3429353 (Bioorganic & medicinal chemistry, 2012).
